Patent US12290521B2, “Methods and materials for identifying and treating BET inhibitor-resistant cancers” (Mayo Foundation for Medical Education and Research, priority 2018, dated 2025)
Residues, ends and D or L forms follow the SMILES beside them. *: point of attachment. Cbz = O=C(OCc1ccccc1)*

Experiments:
SPOP and BRD2/3/4 = test: Western blot, co-IP and in vivo ubiquitination assay in 293T cells; type: cell-based, human; details: MG132 20 μM, 8 hours
Description: To immunoprecipitate the ectopically expressed FLAG-tagged proteins, transfected cells were lysed 24 hours post-transfection in BC100 buffer. The whole-cell lysates were immunoprecipitated with the monoclonal anti-FLAG antibody-conjugated M2 agarose beads (Sigma-Aldrich) at 4° C. overnight. After three washes with lysis buffer, followed by two washes with BC100 buffer, the bound proteins were eluted using FLAG-Peptide (Sigma-Aldrich) prepared in BC100 for 3 hours at 4° C. The eluted protein sample was resolved by SDS-PAGE. To immunoprecipitate the endogenous proteins, cells were lysed with 1× cell lysis buffer (Cell Signaling Technology), and the lysate was centrifuged. The supernatant was precleared with protein A/G beads (Sigma-Aldrich) and incubated with the indicated antibody and protein A/G beads at 4° C. overnight. Beads were washed five times with lysis buffer and resuspended in sample buffer and analyzed by SDS-PAGE.
(§1) Cell lysates or immunoprecipitates were subjected to SDS-PAGE, and proteins were transferred to nitrocellulose membranes (GE Healthcare Sciences). The membranes were blocked in Tris-buffered saline (TBS, pH 7.4) containing 5% non-fat milk and 0.1% Tween-20, washed twice in TBS containing 0.1% Tween-20, and incubated with primary antibody overnight at 4° C., followed by secondary antibody for 1 hour at room temperature. The proteins of interest were visualized using ECL chemiluminescence system (Santa Cruz Biotechnology). Densitometry analysis of protein bands was analyzed on the Gel-Pro Analyzer software.
For the in vivo ubiquitination assay, C4-2 cells were transfected with plasmids for HA-Ub, FLAG-BRD4, and other indicated proteins. C ells were treated with 20 μM MG132 for 8 hours before being harvested and lysed with lysis buffer (50 mM Tris-HCl, pH 7.5, 150 mM NaCl, 1% NP40, 0.5% sodium deoxycholate, 1× protease inhibitor cocktail (PIC)). The lysate was subjected to co-immunoprecipitation using anti-FLAG-conjugated agarose beads as described in the Co-IP assay.

BRD4 [1] = test: Western blot of BRD4 protein, ubiquitination and half-life in DU145 cells; type: cell-based, human
Description: Co-Immunoprecipitation (Co-IP) Cells were harvested and lysed by IP buffer (50 mM Tris-HCl, pH 7.4, 150 mM NaCl, 1% Triton X-100, 1% sodium deoxycholate and 1% protease inhibitor cocktails) on ice for more than 15 minutes. Cell lysate was centrifuged for 15 minutes at 13,000 rpm at 4° C., and the supernatant was incubated with primary antibodies and protein A/G agarose beads (Thermo Fisher Scientific) with rotating at 4° C. overnight. The next day, the pellet was washed at least six times with 1×IP buffer on ice, and then subjected to western blotting analysis. Western Blotting
(§2) Cells were harvested and lysed by IP buffer (50 mM Tris-HCl, pH 7.4, 150 mM NaCl, 1% Triton X-100, 1% sodium deoxycholate and 1% protease inhibitor cocktails) on ice for more than 15 minutes. Cell lysate was centrifuged for 15 minutes at 13,000 rpm at 4° C., and the supernatant was quantified by BCA protein quantification assay. Equal amounts of protein sample were added into 4× sample buffer and boiled for 5 minutes. The sample was subjected to SDS-PAGE analysis and transferred to nitrocellulose membrane. The membrane was blocked by 5% milk for 1 hour at room temperature and incubated with primary antibody at 4° C. overnight. The next day, the membrane was washed three times with 1×TBST and incubated with horseradish peroxidase-conjugated secondary antibodies for 1 hour at room temperature. The protein bands were visualized by SuperSignal West Pico Stable Peroxide Solution (Thermo Fisher Scientific).

BRD2/3/4 = test: Western blot and RT-qPCR of BRD2/3/4 in LNCaP cells; type: cell-based; details: 8 hours, MLN4924 200 nM, Bortezomib 200 nM, MG132 20 μM
Description: as §1
(§3) Total RNA was isolated from transiently transfected cells using the Trizol reagent (Thermo Fisher Scientific), and cDNA was reverse-transcribed using the Superscript RT kit (TOYOBO, Japan) according to the manufacturer's instructions. PCR amplification was performed using the SYBR Green PCR master mix Kit (TOYOBO, Japan). All quantization was normalized to the level of endogenous control GAPDH. The primer sequences for the SYBR green qPCR used were as follows: BRD2-F: 5′-[…]-3′ (SEQ ID NO:10); BRD2-R: 5′-[…]-3′ (SEQ ID NO:11); BRD3-F: 5′-[…]-3′ (SEQ ID NO:12); BRD3-R: 5′-[…]-[…]-3′ (SEQ ID NO:13); BRD4-F: 5′-[…]-GAG-3′ (SEQ ID NO:14); BRD4-F: 5′-[…]-3′ (SEQ ID NO: 15); RAC1-F: 5′-[…]-3′ (SEQ ID NO:16); RAC1-R: 5′-[…]-3′ (SEQ ID NO:17); FDFT1-F: 5′-ACTAT-[…]-3′ (SEQ ID NO:18); FDFT1-R: 5′-[…]-[…]-3′ (SEQ ID NO:19); DHCR24-F: 5′-[…]-GAGC-3′ (SEQ ID NO:20); DHCR24-R: 5′-[…]-3′(SEQ ID NO:21); DHCR7-F: 5′-[…]-3′ (SEQ ID NO: 22); DHCR7-R: 5′-[…]-3′ (SEQ ID NO:23); MVD-F: 5′-[…]-3′ (SEQ ID NO:24); MVD-R: 5′-CACAC-[…]-3′ (SEQ ID NO:25); PSA-F: 5′-[…]-[…]-3′ (SEQ ID NO:26); PSA-R: 5′-[…]-3′ (SEQ ID NO:27); TMPRSS2-F: 5′-[…]-3′ (SEQ ID NO: 28); TMPRSS2-R: 5′-[…]-3′ (SEQ ID NO:29); MYC-F: 5′-[…]-3′ (SEQ ID NO:30); MYC-R: 5′-CTTGT-[…]-3′ (SEQ ID NO:31); AR-F: 5′-[…]-TCACC-3′ (SEQ ID NO:32); AR-R: 5′-[…]-3′ (SEQ ID NO: 33); GAPDH-F: 5′-[…]-3′ (SEQ ID NO:34); and GAPDH-R: 5′-[…]-3′ (SEQ ID NO:35).

BRD4 [2] = test: Western blot of BRD4 protein in PC-3 cells; type: cell-based, human; details: MG132, 8 h
Description: as §2

C4-2 cells [3] = test: Western blot and RT-qPCR of protein and mRNA expression in C4-2 cells; type: cell-based, human; details: 24 hours
Description: as §1, §3, §2
Total RNA was isolated using TRIzol reagent (Thermo Fisher Scientific). The NanoDrop 2000 spectrophotometer (Thermo Fisher Scientific) was used to assess RNA yield and quality. RNA was reversely transcribed using Superscript II reverse transcriptase (Thermo Fisher Scientific) following manufacturer's instructions. Quantitative real-time PCR was performed by mixing cDNA, gene-specific primers and IQ SYRB Green Supermix and detected by iCycler QTX detection system (Bio-Rad). The 2-ΔCt method was used to quantitate fold changes by normalizing to GAPDH.

C4-2 cells [4] = test: Cell proliferation assay (MTS) and trypan blue assay; type: cell-based, human; details: SPOP-F133V C4-2 cells; GDC-0068 0.2 μM with JQ1 0.25 μM, 5 days
Description: CellTiter 96® AQueous One Solution Cell Proliferation Assay (MTS) (Promega) was used to measure cell growth according to the manufacturer's instructions. Briefly, cells were plated in 96-well plates at a density of 2,000 cells per well. At the indicated times, 20 μL of Cell Titer 96R Aqueous One Solution Reagent was added to medium. After incubating for 1 hour at 37° C. in the cell incubator, cell growth was measured in a microplate reader at 490 nm.
Trypan blue assay was performed to measure cell growth according to the manufacturer's instructions. Briefly, cells were plated in 6-well plates at a density of about 5×10^4 to about 1×10^5 cells per well. At the indicated time points, cells were trypsinized and suspended in 1 mL 1×PBS. 100 μL cells and 100 μL trypan blue solution (Sigma-Aldrich) were mixed, and the number of viable cells was measured using the Bio-Rad automated cell counter.
Cell proliferation was measured by using the MTS assay (Promega). Prostate cancer cells (2,000 per well) were seeded in 96-well plates with 100 μL of culture medium. Each well was added with 20 μL of CellTiter 96R AQueous One Solution Reagent (Promega) and absorbance was measured in a microplate reader at 490 nm.

solid tumors = details: patients with solid tumors; cited from earlier work
C4-2 xenograft tumors = test: Prostate cancer xenografts in NSG mice; type: in vivo; details: SPOP-F133V C4-2 xenografts; GDC-0068 100 mg/kg with JQ1 50 mg/kg, 5 days a week, day 21
Description: 6-week-old NOD-SCID IL-2-receptor gamma null (NSG) mice were generated and randomly divided into different experimental groups as indicated. All mice were housed in standard conditions with a 12-hour light/dark cycle and access to food and water ad libitum. For BRD2/3/4 knockdown studies, C4-2 cells (5×10^6), infected with lentivirus expressing empty vector (EV) or HA-SPOP-F133V mutant in combination with control shRNA or BRD2/3/4-specific shRNA, were mixed with Matrigel (in 100 μL 1×PBS plus 100 μL Matrigel (BD Biosciences)) and injected s.c. into the right flank of mice. After xenografts reached the size of about 100 mm^3, vehicle (10% beta cyclodextrin) or JQ1 (Sigma-Aldrich) at 50 mg/kg body weight was administered by i.p. injection 5 days a week. For studies with tumors treated with JQ1 and AKT inhibitor GDC-0068, C4-2 cells (5×10^6) infected with lentivirus expressing empty vector (EV) or HA-SPOP-F133V mutant were mixed with Matrigel (in 100 μL 1×PBS plus 100 μL Matrigel (BD Biosciences)) and injected s.c. into the right flank of mice. […] Growth in tumor volume was measured in a blinded fashion using digital caliper, and tumor volumes were estimated using the formula (L×W2)/2, where L is length of tumor and W is width. The volumes of tumors were compared, and P values were determined by a two-tailed Student's t test. […]

[5] = DU145 cells, PD0332991 2 μM, 24 hours
[6] = DU145 cells, PD0332991 with JQ1, 24 hours

CC(C)C[C@@H](C=O)NC(=O)[C@H](CC(C)C)NC(=O)[C@H](CC(C)C)NC(=O)OCc1ccccc1 [MG132] (Cbz-Leu-Leu-Leu-aldehyde)
decrease of BRD2/3/4 proteins by wild-type SPOP expression (SPOP and BRD2/3/4): completely reversed
PD0332991-induced decrease of BRD4 protein (BRD4 [1]; DU145 cells, 24 hours, co-treatment with MG132): completely impeded
decrease of BRD4 protein levels by DUB3 knockdown (BRD4 [1]; SPOP F133V-expressing DU145 cells, MG132, 8 hours): blocked
BRD2/3/4 protein level (BRD2/3/4): increased
downregulation of BRD4 proteins caused by DUB3 knockdown (BRD4 [2]): reversed

CC(C)C[C@H](NC(=O)[C@H](Cc1ccccc1)NC(=O)c1cnccn1)B(O)O [Bortezomib]
BRD2/3/4 protein level (BRD2/3/4): increased

CC(/C=C/C(=O)NO)=C\[C@@H](C)C(=O)c1ccc(N(C)C)cc1 [trichostatin A]
DUB3 protein and mRNA expression (C4-2 cells [3]; C4-2 cells, TSA 1 μM): increased

CC(=O)c1c(C)c2cnc(Nc3ccc(N4CCNCC4)cn3)nc2n(C2CCCC2)c1=O [PD0332991, 6-acetyl-8-cyclopentyl-5-methyl-2-[(5-piperazin-1-ylpyridin-2-yl)amino]pyrido[2,3-d]pyrimidin-7-one]
BRD4 protein expression in DUB3 knockdown cells (BRD4 [1]; DU145 cells, DUB3 shRNA, PD0332991 2 μM, 24 hours): little or no further reduction
BRD4 polyubiquitination (BRD4 [1]; [5]): increased
DUB3-induced upregulation of BRD4 protein (BRD4 [1]; [5]): completely blocked
DUB3-mediated deubiquitination of BRD4 (BRD4 [1]; [5]): reversed
BRD4 protein (BRD4 [1]; DU145 cells, PD0332991 2 μM, time-dependent): decreased
JQ1-induced inhibition of BRD4 polyubiquitination (BRD4 [1]; [6]): almost completely reversed
JQ1-induced upregulation of BRD4 protein (BRD4 [1]; [6]): almost completely abolished

CC(C)NC[C@@H](C(=O)N1CCN(c2ncnc3c2[C@H](C)C[C@H]3O)CC1)c1ccc(Cl)cc1 [GDC-0068]
SPOP mutation-conferred resistance to BET inhibitor, cells in culture (C4-2 cells [4]): completely overcame
antitumor efficacy (solid tumors): effective antitumor efficacy
SPOP mutation-induced activation of AKT downstream pathways (C4-2 cells [3]; SPOP-F133V C4-2 cells, GDC-0068 1 μM, Western blot): abolished
SPOP mutation-conferred resistance to BET inhibitor, tumors in mice (C4-2 xenograft tumors): completely overcame

NS(=O)(=O)OC[C@@H]1C[C@@H](n2ccc3c(N[C@H]4CCc5ccccc54)ncnc32)C[C@@H]1O [MLN4924]
BRD2/3/4 protein level (BRD2/3/4): accumulation
